In publication PMC7719162, “Positioning of an unprecedented spiro[5.5]undeca ring system into kinase inhibitor space” (Scientific Reports, 2020):
Where two headings read alike, the source gives them in different places.

Tests used:
AMPK(A2/B1/G1) [1] = target: T1, AMPK(A2/B1/G1) (Homo sapiens, UniProt P54619+P54646+Q9Y478); experiment: Kinase panel assay (radiolabelled); type: biochemical; conditions: 30 μM compound, ATP 10 μM; duplicates Data 1/Data 2; read-out: % Enzyme Activity (relative to DMSO controls)
T1 construct: purchased Reaction Biology Corp

AMPK(A2/B1/G1) [2] = target: T2, AMPK(A2/B1/G1) (Homo sapiens, UniProt P54646); experiment: Kinase panel assay (radiolabelled); type: biochemical; conditions: 30 μM compound, ATP 10 μM; duplicates Data 1/Data 2
T2 construct: purchased Reaction Biology Corp

AMPK(A2/B2/G2) [3] = target: T3, AMPK(A2/B2/G2) (Homo sapiens, UniProt O43741+P54646+Q9UGJ0); experiment: Kinase panel assay (radiolabelled); type: biochemical; conditions: 30 μM compound, ATP 10 μM; duplicates Data 1/Data 2; read-out: % Enzyme Activity (relative to DMSO controls)
T3 construct: purchased Reaction Biology Corp

AMPK(A2/B2/G2) [4] = target: T4, AMPK(A2/B2/G2) (Homo sapiens, UniProt P54646); experiment: Kinase panel assay (radiolabelled); type: biochemical; conditions: 30 μM compound, ATP 10 μM; duplicates Data 1/Data 2
T4 construct: purchased Reaction Biology Corp

CDK3/cyclin E = target: T5, CDK3/cyclin E (Homo sapiens, UniProt Q00526); experiment: Kinase panel assay (radiolabelled); type: biochemical; conditions: ATP 10 μM
T5 construct: purchased Reaction Biology Corp
T5 sequence (Q00526 whole entry): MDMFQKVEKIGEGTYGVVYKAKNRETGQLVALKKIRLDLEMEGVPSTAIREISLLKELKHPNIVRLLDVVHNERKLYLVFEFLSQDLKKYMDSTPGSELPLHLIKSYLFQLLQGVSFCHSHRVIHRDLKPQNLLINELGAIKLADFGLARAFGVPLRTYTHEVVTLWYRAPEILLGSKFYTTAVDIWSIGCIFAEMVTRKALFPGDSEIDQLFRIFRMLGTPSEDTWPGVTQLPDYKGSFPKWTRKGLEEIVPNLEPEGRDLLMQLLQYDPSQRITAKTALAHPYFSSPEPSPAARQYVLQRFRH
T5 sequence (P24864 whole entry partner): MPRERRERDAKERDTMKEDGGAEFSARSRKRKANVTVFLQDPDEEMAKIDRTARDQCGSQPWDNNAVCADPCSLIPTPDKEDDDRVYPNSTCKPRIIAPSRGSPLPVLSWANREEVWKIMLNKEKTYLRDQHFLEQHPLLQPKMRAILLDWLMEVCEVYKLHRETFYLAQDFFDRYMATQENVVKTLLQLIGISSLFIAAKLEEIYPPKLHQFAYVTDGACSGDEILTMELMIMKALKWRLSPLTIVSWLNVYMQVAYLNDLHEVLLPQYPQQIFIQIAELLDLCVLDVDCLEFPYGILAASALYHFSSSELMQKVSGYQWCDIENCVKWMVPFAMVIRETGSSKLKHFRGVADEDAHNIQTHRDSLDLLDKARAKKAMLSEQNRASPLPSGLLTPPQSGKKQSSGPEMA

TRKA (G595R) = target: T6, TRKA (G595R) (Homo sapiens, UniProt P04629, G595R); experiment: Kinase panel assay (radiolabelled); type: biochemical; conditions: 30 μM compound, ATP 10 μM, duplicates Data 1/Data 2
T6 construct: purchased Reaction Biology Corp
T6 sequence (P04629 33-796 G595R): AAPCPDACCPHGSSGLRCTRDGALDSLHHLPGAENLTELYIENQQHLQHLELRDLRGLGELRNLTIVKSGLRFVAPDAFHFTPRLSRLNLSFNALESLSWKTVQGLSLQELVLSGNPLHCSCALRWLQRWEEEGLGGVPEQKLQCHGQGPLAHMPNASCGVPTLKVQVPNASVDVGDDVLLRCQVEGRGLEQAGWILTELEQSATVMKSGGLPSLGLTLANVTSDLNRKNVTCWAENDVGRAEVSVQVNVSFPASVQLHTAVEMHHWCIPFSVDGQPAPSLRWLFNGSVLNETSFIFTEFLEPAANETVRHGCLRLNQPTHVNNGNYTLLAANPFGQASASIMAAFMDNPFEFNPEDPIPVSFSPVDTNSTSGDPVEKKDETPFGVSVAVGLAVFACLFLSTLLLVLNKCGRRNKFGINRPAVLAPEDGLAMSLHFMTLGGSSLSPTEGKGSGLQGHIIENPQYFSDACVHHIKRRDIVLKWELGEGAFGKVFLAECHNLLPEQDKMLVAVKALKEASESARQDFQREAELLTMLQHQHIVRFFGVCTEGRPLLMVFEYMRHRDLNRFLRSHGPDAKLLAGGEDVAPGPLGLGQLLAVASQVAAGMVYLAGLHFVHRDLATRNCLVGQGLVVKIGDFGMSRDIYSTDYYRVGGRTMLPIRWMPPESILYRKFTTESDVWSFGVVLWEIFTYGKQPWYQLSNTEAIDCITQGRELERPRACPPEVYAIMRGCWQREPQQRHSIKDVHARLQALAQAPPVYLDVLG

TRKC (G623R) = target: T7, TRKC (G623R) (Homo sapiens, UniProt Q16288, G623R); experiment: Kinase panel assay (radiolabelled); type: biochemical; conditions: 30 μM compound, ATP 10 μM, duplicates Data 1/Data 2
T7 construct: purchased Reaction Biology Corp
T7 sequence (Q16288 32-839 G623R): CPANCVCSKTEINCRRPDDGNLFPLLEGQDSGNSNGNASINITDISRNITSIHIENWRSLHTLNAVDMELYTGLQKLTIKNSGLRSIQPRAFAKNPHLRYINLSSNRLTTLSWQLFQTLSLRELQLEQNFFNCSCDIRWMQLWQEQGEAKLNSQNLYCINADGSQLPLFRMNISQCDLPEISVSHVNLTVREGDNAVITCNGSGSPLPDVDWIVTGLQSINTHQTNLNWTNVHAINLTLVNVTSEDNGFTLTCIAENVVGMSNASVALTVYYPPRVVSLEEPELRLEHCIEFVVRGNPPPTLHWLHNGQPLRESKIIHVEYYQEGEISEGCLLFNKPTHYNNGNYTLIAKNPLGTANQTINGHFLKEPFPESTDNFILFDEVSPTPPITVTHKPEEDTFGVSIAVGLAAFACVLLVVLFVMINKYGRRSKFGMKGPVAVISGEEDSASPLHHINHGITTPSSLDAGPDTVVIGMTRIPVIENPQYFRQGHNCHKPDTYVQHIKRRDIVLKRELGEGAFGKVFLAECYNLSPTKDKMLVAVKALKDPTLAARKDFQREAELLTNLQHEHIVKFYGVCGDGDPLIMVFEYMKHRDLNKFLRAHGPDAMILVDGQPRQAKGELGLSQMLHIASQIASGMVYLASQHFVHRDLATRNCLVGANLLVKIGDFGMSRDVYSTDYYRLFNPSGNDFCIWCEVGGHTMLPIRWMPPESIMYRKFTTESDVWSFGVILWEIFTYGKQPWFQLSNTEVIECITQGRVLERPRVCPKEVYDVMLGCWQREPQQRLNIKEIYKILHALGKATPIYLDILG

PI4Kb = target: T8, PI4Kb (Homo sapiens, UniProt Q9UBF8); experiment: Kinase panel assay (lipid kinase); type: biochemical; conditions: 30 μM compound, ATP 10 μM, duplicates Data 1/Data 2
T8 construct: purchased Reaction Biology Corp
T8 sequence (Q9UBF8 whole entry): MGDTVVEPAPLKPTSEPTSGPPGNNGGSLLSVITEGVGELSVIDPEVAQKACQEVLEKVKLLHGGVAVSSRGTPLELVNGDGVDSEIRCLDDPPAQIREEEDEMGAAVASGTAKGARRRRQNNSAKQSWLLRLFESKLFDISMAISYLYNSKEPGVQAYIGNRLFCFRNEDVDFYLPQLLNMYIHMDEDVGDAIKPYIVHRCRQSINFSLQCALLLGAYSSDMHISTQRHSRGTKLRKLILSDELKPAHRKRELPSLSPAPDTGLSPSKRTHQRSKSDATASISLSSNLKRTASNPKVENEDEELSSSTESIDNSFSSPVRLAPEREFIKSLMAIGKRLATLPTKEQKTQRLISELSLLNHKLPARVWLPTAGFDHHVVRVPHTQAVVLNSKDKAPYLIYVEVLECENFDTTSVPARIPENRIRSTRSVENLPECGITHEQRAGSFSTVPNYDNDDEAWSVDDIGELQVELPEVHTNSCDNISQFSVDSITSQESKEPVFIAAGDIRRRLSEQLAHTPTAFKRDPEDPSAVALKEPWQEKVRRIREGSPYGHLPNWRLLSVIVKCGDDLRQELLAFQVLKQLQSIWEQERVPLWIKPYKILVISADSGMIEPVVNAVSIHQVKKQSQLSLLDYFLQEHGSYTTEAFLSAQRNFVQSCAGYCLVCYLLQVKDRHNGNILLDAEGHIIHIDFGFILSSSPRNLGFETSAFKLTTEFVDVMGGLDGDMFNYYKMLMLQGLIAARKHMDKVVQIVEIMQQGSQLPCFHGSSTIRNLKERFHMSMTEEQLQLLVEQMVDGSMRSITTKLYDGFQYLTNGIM

PI3K (p110a/p65a) = target: T9, PI3K (p110a/p65a) (Homo sapiens, UniProt P42336); experiment: Kinase panel assay (lipid kinase); type: biochemical; conditions: 30 μM compound, ATP 10 μM, duplicates Data 1/Data 2
T9 construct: purchased Reaction Biology Corp
T9 sequence (P42336 whole entry): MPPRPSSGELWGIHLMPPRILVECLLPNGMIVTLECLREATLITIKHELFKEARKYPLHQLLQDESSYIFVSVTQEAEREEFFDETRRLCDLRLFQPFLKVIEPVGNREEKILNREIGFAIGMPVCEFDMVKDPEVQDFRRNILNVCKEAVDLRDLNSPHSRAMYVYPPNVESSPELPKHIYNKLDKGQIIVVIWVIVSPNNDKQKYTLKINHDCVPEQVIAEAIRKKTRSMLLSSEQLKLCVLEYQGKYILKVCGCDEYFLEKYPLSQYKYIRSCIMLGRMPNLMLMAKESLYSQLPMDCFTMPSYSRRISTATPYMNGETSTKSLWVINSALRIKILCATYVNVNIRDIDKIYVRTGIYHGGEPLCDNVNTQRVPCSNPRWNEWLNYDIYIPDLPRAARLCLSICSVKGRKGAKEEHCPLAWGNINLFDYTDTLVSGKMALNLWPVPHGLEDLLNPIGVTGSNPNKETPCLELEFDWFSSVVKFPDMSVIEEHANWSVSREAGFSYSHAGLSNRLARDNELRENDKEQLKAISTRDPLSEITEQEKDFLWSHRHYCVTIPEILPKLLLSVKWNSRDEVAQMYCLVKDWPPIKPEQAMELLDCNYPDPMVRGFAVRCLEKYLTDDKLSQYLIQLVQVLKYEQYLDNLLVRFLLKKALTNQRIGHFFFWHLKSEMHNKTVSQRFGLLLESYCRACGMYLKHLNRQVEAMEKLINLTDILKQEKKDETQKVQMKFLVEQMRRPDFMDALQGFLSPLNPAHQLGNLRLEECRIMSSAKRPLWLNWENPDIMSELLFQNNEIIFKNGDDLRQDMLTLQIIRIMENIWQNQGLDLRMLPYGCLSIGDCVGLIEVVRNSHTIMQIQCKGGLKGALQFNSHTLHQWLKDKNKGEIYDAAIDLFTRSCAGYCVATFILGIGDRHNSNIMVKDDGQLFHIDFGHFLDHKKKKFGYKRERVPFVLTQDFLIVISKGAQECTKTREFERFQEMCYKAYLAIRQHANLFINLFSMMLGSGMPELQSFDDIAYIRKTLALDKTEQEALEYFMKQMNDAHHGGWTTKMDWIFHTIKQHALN

iNOS = experiment: Western blot of iNOS in LPS-induced BV-2 cells; type: cell-based, murine
Description: Western blot analysis was performed to see the protein expression of the iNOS and COX-2 in the BV2 cells. BV2 cells were seeded in a 6 well plate at the density of 6 × 10^5 cells/well overnight and cells were treated as mentioned earlier in the cell treatment section and this time treatment was performed for 6 h only. After 6 h, cells were harvested and lysed with lysis buffer containing (RIPA, protease inhibitor & phosphatase inhibitor), protein estimation was performed using biorad assay and the 30 µg of total protein was separated by 8% SDS-PAGE gel electrophoresis, transferred to nitrocellulose membranes, and incubated with primary antibodies against tubulin, iNOS, COX-2, and α-tubulin. […] membranes were incubated with horseradish peroxidase-conjugated secondary antibodies, and protein bands were visualized using ECL Western Blotting Detection Reagents (Amersham Pharmacia Biotech). Quantitative analysis of the protein bands was quantified using Image Master 2D Elite software (version 3.1, Amersham Pharmacia Biotech).

ARK5/NUAK1 = target: T10, ARK5/NUAK1 (Homo sapiens, UniProt O60285); conditions: cited from earlier work
T10 construct: purchased Reaction Biology Corp
T10 sequence (O60285 1-661): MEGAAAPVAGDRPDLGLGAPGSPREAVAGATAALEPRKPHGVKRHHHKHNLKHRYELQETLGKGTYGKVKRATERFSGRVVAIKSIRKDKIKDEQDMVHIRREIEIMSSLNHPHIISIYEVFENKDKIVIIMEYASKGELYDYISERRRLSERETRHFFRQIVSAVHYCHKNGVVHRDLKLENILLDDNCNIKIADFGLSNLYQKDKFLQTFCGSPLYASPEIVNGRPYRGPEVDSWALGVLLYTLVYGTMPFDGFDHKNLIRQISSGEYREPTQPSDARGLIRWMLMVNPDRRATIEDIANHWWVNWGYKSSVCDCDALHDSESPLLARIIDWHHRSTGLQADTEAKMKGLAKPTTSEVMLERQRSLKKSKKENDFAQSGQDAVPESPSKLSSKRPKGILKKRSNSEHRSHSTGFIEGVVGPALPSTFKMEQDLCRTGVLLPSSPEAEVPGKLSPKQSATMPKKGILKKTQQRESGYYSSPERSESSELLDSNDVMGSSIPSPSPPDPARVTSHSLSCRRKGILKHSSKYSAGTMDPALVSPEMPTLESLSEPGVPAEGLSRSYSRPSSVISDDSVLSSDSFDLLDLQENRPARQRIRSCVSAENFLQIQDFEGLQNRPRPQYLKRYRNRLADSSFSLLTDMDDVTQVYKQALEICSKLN

GSK3b = target: T11, GSK3b (Homo sapiens, UniProt P49841); conditions: cited from earlier work
T11 construct: purchased Reaction Biology Corp
T11 sequence (P49841 whole entry): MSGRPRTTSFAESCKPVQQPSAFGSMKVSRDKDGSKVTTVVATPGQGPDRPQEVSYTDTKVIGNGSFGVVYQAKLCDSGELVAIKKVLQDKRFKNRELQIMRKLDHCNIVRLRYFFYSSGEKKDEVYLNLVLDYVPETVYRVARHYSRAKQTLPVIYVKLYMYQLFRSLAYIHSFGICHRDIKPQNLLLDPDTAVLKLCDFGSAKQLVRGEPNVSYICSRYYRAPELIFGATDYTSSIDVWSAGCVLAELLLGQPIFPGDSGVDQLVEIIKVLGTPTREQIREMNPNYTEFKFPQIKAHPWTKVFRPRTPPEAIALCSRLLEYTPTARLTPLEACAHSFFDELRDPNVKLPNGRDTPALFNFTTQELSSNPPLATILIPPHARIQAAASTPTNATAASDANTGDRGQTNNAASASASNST

ROCK2 = target: T12, ROCK2 (Homo sapiens, UniProt O75116); conditions: cited from earlier work
T12 construct: purchased Reaction Biology Corp

STK25/YSK1 = target: T13, STK25/YSK1 (Homo sapiens, UniProt O00506); conditions: cited from earlier work
T13 construct: purchased Reaction Biology Corp
T13 sequence (O00506 whole entry): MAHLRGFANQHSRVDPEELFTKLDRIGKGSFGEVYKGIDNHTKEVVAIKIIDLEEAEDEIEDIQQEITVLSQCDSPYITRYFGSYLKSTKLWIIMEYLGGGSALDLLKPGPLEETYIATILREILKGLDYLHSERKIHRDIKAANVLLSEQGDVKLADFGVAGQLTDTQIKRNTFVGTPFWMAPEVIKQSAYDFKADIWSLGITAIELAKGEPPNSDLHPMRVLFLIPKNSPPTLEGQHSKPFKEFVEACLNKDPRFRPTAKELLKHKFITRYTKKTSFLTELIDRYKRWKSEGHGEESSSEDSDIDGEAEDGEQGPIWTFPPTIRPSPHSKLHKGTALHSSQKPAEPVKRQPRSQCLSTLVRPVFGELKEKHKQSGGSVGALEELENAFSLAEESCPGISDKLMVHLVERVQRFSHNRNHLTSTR

TLK1 = target: T14, TLK1 (Homo sapiens, UniProt Q9UKI8); conditions: cited from earlier work
T14 construct: purchased Reaction Biology Corp
T14 sequence (Q9UKI8 1-766): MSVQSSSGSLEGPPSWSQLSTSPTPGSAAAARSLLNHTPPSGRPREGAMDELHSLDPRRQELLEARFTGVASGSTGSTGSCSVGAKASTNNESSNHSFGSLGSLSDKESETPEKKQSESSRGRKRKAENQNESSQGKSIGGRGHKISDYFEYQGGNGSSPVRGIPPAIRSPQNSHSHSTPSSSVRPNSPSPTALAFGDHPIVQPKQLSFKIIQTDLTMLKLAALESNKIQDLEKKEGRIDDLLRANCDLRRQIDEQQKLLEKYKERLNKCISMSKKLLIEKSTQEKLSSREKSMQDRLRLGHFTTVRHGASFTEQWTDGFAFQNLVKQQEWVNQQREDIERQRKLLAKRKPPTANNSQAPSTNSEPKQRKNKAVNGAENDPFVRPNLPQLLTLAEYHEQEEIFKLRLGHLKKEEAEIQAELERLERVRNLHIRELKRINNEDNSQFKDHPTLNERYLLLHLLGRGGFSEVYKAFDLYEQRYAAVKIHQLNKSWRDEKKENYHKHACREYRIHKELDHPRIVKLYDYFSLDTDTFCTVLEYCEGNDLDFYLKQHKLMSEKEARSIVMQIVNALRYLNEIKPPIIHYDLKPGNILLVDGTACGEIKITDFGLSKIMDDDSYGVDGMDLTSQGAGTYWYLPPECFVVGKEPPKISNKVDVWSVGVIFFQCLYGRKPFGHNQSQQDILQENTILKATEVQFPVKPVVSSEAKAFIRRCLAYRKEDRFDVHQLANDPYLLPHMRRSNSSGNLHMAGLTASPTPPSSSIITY

TRKB = target: T15, TRKB (Homo sapiens, UniProt Q16620); conditions: cited from earlier work
T15 construct: purchased Reaction Biology Corp

[5] = read-out: % Enzyme Activity (relative to DMSO controls)

SMILES: O=C1C=CC2(C=C1)OCC(Cc1cn(-c3cccc(Cl)c3)nn1)C(=O)N2c1ccccc1 (stereo not drawn) [2d, 3-((1-(3-Chlorophenyl)-1H-1,2,3-triazol-4-yl)methyl)-5-phenyl-1-oxa-5-azaspiro[5.5]undeca-7,10-diene-4,9-dione]
- remaining activity at 30 µM (AMPK(A2/B1/G1) [1]): 50.8%
- % Enzyme Activity (relative to DMSO controls) (AMPK(A2/B1/G1) [2]): 47.50%
- remaining activity at 30 µM (AMPK(A2/B2/G2) [3]): 114%
- % Enzyme Activity (relative to DMSO controls) (AMPK(A2/B2/G2) [4]): 111.36%
- % Enzyme Activity (relative to DMSO controls) (CDK3/cyclin E; 30 μM compound, duplicates Data 1/Data 2): 59.02%
- remaining activity at 30 µM (CDK3/cyclin E; 30 μM compound, duplicates Data 1/Data 2, read-out: % Enzyme Activity (relative to DMSO controls)): 61.6%
- remaining activity at 30 µM (CDK3/cyclin E; 30 μM, average ± SD, read-out: % Residual Activity at 30 μM): 60.3 ± 1.9%
- % Enzyme Activity (relative to DMSO controls) (TRKA (G595R)): 99.08%
- remaining activity at 30 µM (TRKA (G595R); [5]): 103%
- % Enzyme Activity (relative to DMSO controls) (TRKC (G623R)): 90.32%
- remaining activity at 30 µM (TRKC (G623R); [5]): 92.1%
- % Enzyme Activity (relative to DMSO controls) (PI4Kb): 81.00%
- remaining activity at 30 µM (PI4Kb; [5]): 81.6%
- % Enzyme Activity (relative to DMSO controls) (PI3K (p110a/p65a)): 82.25%
- remaining activity at 30 µM (PI3K (p110a/p65a); [5]): 83.8%
- iNOS expression level (iNOS; 0.01 to 1 uM, LPS-induced BV-2 cells): downregulated iNOS and COX-2 more efficiently than compound 2a
- potency relative to L-NMMA (iNOS; regulation of iNOS and COX-2, LPS-induced BV-2 cells): 20 fold

SMILES: O=C1C=CC2(C=C1)OCC(Cc1cc(C(F)(F)F)cc(C(F)(F)F)c1)C(=O)N2c1ccccc1 (racemic) [1c]
- % Residual Activity at 30 μM (ARK5/NUAK1): 70.8 ± 0.1%
- inhibitory activity on GSK-3β (GSK3b; 30 μM): did not show any inhibitory activity
- % Residual Activity at 30 μM (GSK3b): 107.5 ± 1.9%
- % Residual Activity at 30 μM (ROCK2): 103.9 ± 2.4%
- % Residual Activity at 30 μM (STK25/YSK1): 66.9 ± 0.1%
- % Residual Activity at 30 μM (TLK1): 58.0 ± 0.9%
- % Residual Activity at 30 μM (TRKB): 94.1 ± 1.7%
